Measurements reported in the NIST ThermoML archive (doi:10.1016/j.jct.2006.09.001).
“And” between values parts separate entries of the source, which are not always exact repeats. Equal values may be shown once. ± gives the expanded uncertainty stated by the source.

Experiments:
[1] = Molar enthalpy of transition or fusion; conditions: Crystal; DSC
[2] = for Normal melting temperature: DTA

[CH]1C=CC=C1.[CH]1C=CC=C1.[Fe] [ferrocene]
Conditions | Molar enthalpy of transition or fusion [kcal/mol]
[1] | 4.37 ± 0.143

[2], Crystal, Transpiration method
Conditions | vapor or sublimation pressure
289.7 K | 0.00041 ± 3e-05 kPa
299.6 K | 0.00116 ± 6e-05 kPa
303.5 K | 0.00169 ± 9e-05 kPa
303.6 K | 0.00172 ± 9e-05 kPa
307.5 K | 0.00249 ± 0.00014 kPa
312.5 K | 0.00388 ± 0.00021 kPa
317.6 K | 0.00605 ± 0.00033 kPa
322.6 K | 0.00945 ± 0.00051 kPa
322.7 K | 0.00932 ± 0.0005 kPa
327.6 K | 0.014 ± 0.00075 kPa
332.8 K | 0.02131 ± 0.0011 kPa and 0.02096 ± 0.0011 kPa
337.9 K | 0.03024 ± 0.0016 kPa
342.9 K | 0.04379 ± 0.0023 kPa
348 K | 0.06337 ± 0.0034 kPa
353.1 K | 0.09205 ± 0.0049 kPa
358.3 K | 0.1334 ± 0.007 kPa
363.4 K | 0.1803 ± 0.0094 kPa

Conditions | Normal melting temperature [°C]
[2], Crystal | 174.7 ± 0.5

[Fe+2].c1cc[cH-]c1.c1ccc(C[c-]2cccc2)cc1 [benzylferrocene]
Conditions | Molar enthalpy of transition or fusion [kcal/mol]
[1] | 5.66 ± 0.12

[2], Crystal
Conditions | vapor or sublimation pressure [kPa]
311.7 K | 1.2e-05 ± 2e-06
313 K | 1.3e-05 ± 2e-06
318 K | 2.7e-05 ± 3e-06
323.3 K | 5.2e-05 ± 6e-06
325.1 K | 6.4e-05 ± 7e-06
325.3 K | 6.5e-05 ± 7e-06
327.2 K | 8.6e-05 ± 9e-06
331.3 K | 0.000132 ± 1.5e-05
331.9 K | 0.000152 ± 1.6e-05
333.3 K | 0.00017 ± 1.8e-05
335.9 K | 0.000236 ± 2.4e-05
338.4 K | 0.000303 ± 3.2e-05
338.9 K | 0.000323 ± 3.3e-05
341.3 K | 0.000442 ± 4.6e-05

[2], Liquid, Transpiration method
Conditions | vapor or sublimation pressure [kPa]
350.7 K | 0.00111 ± 6e-05
352.9 K | 0.00129 ± 7e-05
356.9 K | 0.00181 ± 0.0001
361 K | 0.00247 ± 0.00013
365 K | 0.00332 ± 0.00017
369 K | 0.0046 ± 0.00024
373.1 K | 0.00602 ± 0.00031
377.1 K | 0.0082 ± 0.00043

Conditions | Normal melting temperature [°C]
[2], Crystal | 76.1 ± 0.7

OC[c-]1cccc1.[Fe+2].c1cc[cH-]c1 [(hydroxymethyl)ferrocene]
Conditions | Molar enthalpy of transition or fusion [kcal/mol]
[1] | 5.66 ± 0.191

[2]
Conditions | vapor or sublimation pressure
313.3 K, Crystal | 0.00011 ± 1e-05 kPa
316.7 K, Crystal | 0.00015 ± 2e-05 kPa
320.4 K, Crystal | 0.00025 ± 3e-05 kPa
323.3 K, Crystal | 0.00036 ± 4e-05 kPa
327.3 K, Crystal | 0.00056 ± 6e-05 kPa
330.4 K, Crystal | 0.00079 ± 8e-05 kPa and 0.00078 ± 8e-05 kPa
333.7 K, Crystal | 0.00116 ± 0.00012 kPa
333.8 K, Crystal | 0.00111 ± 0.00011 kPa
335.9 K, Crystal | 0.0015 ± 0.00015 kPa
336.2 K, Crystal | 0.00149 ± 0.00015 kPa
339.8 K, Crystal | 0.00218 ± 0.00022 kPa
341.1 K, Crystal | 0.00254 ± 0.00026 kPa
342 K, Crystal | 0.0029 ± 0.0003 kPa
343.3 K, Crystal | 0.00329 ± 0.00034 kPa
346 K, Crystal | 0.00416 ± 0.00042 kPa
347.3 K, Crystal | 0.00468 ± 0.00048 kPa
347.4 K, Crystal | 0.00492 ± 0.0005 kPa
353.2 K, Liquid | 0.00788 ± 0.0008 kPa
355.2 K, Liquid | 0.00938 ± 0.00095 kPa
357.3 K, Liquid | 0.0104 ± 0.001 kPa
358.9 K, Liquid | 0.01181 ± 0.0012 kPa
359.6 K, Liquid | 0.01286 ± 0.0013 kPa
361.6 K, Liquid | 0.01452 ± 0.0015 kPa
363.4 K, Liquid | 0.01668 ± 0.0017 kPa
364.7 K, Liquid | 0.01879 ± 0.0019 kPa
366.1 K, Liquid | 0.02236 ± 0.0023 kPa
366.5 K, Liquid | 0.02159 ± 0.0022 kPa
368.9 K, Liquid | 0.02708 ± 0.0027 kPa
369 K, Liquid | 0.02499 ± 0.0025 kPa
370.5 K, Liquid | 0.02709 ± 0.0027 kPa
371.8 K, Liquid | 0.03178 ± 0.0032 kPa
372.5 K, Liquid | 0.03208 ± 0.0033 kPa
374 K, Liquid | 0.03745 ± 0.0038 kPa
375.6 K, Liquid | 0.03813 ± 0.0039 kPa
377 K, Liquid | 0.04507 ± 0.0046 kPa
379.7 K, Liquid | 0.05509 ± 0.0056 kPa
383.7 K, Liquid | 0.06949 ± 0.007 kPa
385 K, Liquid | 0.07524 ± 0.0076 kPa
386.8 K, Liquid | 0.08377 ± 0.0084 kPa
389.6 K, Liquid | 0.09595 ± 0.0097 kPa
393.7 K, Liquid | 0.1301 ± 0.013 kPa

Conditions | Normal melting temperature [°C]
[2], Crystal | 79.1 ± 0.7

O=C(c1ccccc1)c1ccc[cH-]1.[Fe+2].c1cc[cH-]c1 [benzoylferrocene]
Conditions | Molar enthalpy of transition or fusion [kcal/mol]
[1] | 7.15 ± 0.167

[2], Transpiration method
Conditions | vapor or sublimation pressure [kPa]
342.3 K, Crystal | 2.2e-05 ± 1e-06
347.2 K, Crystal | 3.8e-05 ± 2e-06
350.2 K, Crystal | 5.3e-05 ± 3e-06
350.9 K, Crystal | 5.8e-05 ± 3e-06
353 K, Crystal | 7.5e-05 ± 4e-06
356 K, Crystal | 9.7e-05 ± 5e-06
357.8 K, Crystal | 0.000123 ± 7e-06
360.3 K, Crystal | 0.000164 ± 9e-06
363 K, Crystal | 0.00021 ± 1.1e-05
364 K, Crystal | 0.000246 ± 1.4e-05
366.4 K, Crystal | 0.000313 ± 1.7e-05
370 K, Crystal | 0.000441 ± 2.4e-05
371.7 K, Crystal | 0.000553 ± 3.1e-05
373.6 K, Crystal | 0.000674 ± 3.7e-05
377.3 K, Crystal | 0.000963 ± 5.2e-05
379.3 K, Crystal | 0.001207 ± 6.5e-05
384 K, Liquid | 0.00187 ± 0.0001
386.2 K, Liquid | 0.00223 ± 0.00012
389.1 K, Liquid | 0.0027 ± 0.00014
392.4 K, Liquid | 0.00338 ± 0.00018
396 K, Liquid | 0.00428 ± 0.00022
397.9 K, Liquid | 0.00488 ± 0.00025
402 K, Liquid | 0.00618 ± 0.00035
402.6 K, Liquid | 0.00664 ± 0.00034
404.8 K, Liquid | 0.00742 ± 0.00039
408.8 K, Liquid | 0.00977 ± 0.0005
408.9 K, Liquid | 0.00961 ± 0.00049
410.6 K, Liquid | 0.01054 ± 0.00054
413.6 K, Liquid | 0.01254 ± 0.00065
416.8 K, Liquid | 0.01548 ± 0.0008
419.7 K, Liquid | 0.01891 ± 0.00097
423.3 K, Liquid | 0.02256 ± 0.0012
426.6 K, Liquid | 0.02806 ± 0.0014
429.6 K, Liquid | 0.03229 ± 0.0016

Conditions | Normal melting temperature [°C]
[2], Crystal | 109.5 ± 0.5
